Laboratory results as given in paper PMC9603864, “Novel Class of Proteasome Inhibitors: In Silico and In Vitro Evaluation of Diverse Chloro(trifluoromethyl)aziridines” (International Journal of Molecular Sciences, 2022).
Where two headings read alike, the source gives them in different places.

Legend:
Format in all cases: biochemical
[1] = biological target: T1, 20S proteasome β5 subunit (chymotrypsin-like activity) (Homo sapiens, UniProt P28074); assay: fluorometric ChT-L screening assay, % inhibition at […]; conditions: read-out: ChT-L Activity (% Inhibition at 20 μM) ^1
T1 construct: gene PSMB5; whole human 20S proteasome (Biomol); with other subunits of the 20S proteasome
T1 sequence (P28074 60-263): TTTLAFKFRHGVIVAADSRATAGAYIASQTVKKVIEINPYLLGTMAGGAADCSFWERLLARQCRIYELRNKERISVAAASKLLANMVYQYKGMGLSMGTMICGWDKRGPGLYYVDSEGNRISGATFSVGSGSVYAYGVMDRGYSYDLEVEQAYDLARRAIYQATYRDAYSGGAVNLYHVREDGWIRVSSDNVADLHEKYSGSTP

[2] = biological target: T1, 20S proteasome β5 subunit (chymotrypsin-like activity); assay: fluorometric ChT-L assay with Suc-LLVY-AMC, continuous; IC50 […], Ki by Cheng-Prusoff
[3] = biological target: T1, 20S proteasome β5 subunit (chymotrypsin-like activity); assay: as above; remark: listed apart in the source

SMILES	inhibition at 20 µM [1] [%]	further results
N#Cc1ccc(N2CC2(Cl)C(F)(F)F)cc1 (centres unmarked) [compound 18, CTMA 18]	37 ± 0.5	
FC(F)(F)C1(Cl)CN1c1ccc2cc3ccccc3cc2c1 (centres unmarked) [compound 21, CTMA 21]		Ki [2]: 1600 ± 130 nM
FC(F)(F)C1(Cl)CN1c1ccc(N=Nc2ccccc2)cc1 (centres unmarked) [compound 22, CTMA 22]		Ki [3]: 1600 ± 80 nM
FC(F)(F)C1(Cl)CN1c1ccc(N2CCOCC2)cc1 (centres unmarked) [compound 23, CTMA 23]	41 ± 1.2	
O=C1CCCN1c1cccc(N2CC2(Cl)C(F)(F)F)c1 (centres unmarked) [compound 25, CTMA 25]	34 ± 1.4	
